Converted amounts (≈) assume the structure as drawn.
Key:
[1] = Microsome incubation, metabolic stability (human); type: in vitro ADME; details: for microsomal CLint at 10 μM: pH 7.4, human liver microsomes 2.0 mg prot/mL, test compound 10 μM, 37° C., read-out: Intrinsic clearance (human)
Experimental: The compounds of formula I of the present invention are further characterized by high metabolic stability. This parameter is a prerequisite for good bioavailability, which is necessary to obtain medicaments with acceptable in-vivo activity. The metabolic stability has been tested by the following method:
Incubation mixtures consisted of liver microsomes (rat 1.0 mg prot/mL or human 2.0 mg prot/mL), test compound 10 μM, MgCl2 (3.3 mM), and an NADPH regenerating system consisting of glucose-6-phosphate dehydrogenase, NADPH and glucose-6-phosphate (equivalent to 1 mM NADPH) in a total volume of 1.0 mL of potassium phosphate buffer 100 mM pH 7.4. Reactions were initiated by addition of the NADPH regenerating system at 37° C. At the time of 1, 5, 9, 13, 17, 21, 25, and 29 min a 5 μL aliquot was directly analysed on a HPLC-MS/MS system consisting of a HP 1100 quaternary pump with degasser and a PE-Sciex API-2000 MS/MS spectrometer. The analytical column was a Waters Symmetry Shield RP8 (2.1*50 mm with a […] particle size). A polarity non linear gradient from phase A (MeOH/Ac. Form. 1% 20/80) to phase B (MeOH) was applied for a total run time of 2 minutes at a flow rate of 0.25 mL/min. The PE-Sciex API-2000 MS/MS spectrometer was used for detection of the parent compound. In vivo metabolic clearance was predicted according to published procedures [Houston, Biochem. Pharmacol. 47:1469-1479 (1994)]. In brief, the intrinsic clearance (Clearance, see table below) is calculated from the measured in vitro half-life taking into account incubation volume and microsomal protein used for the in vitro incubation. The intrinsic clearance is expressed in terms of μl/min/mg microsomal protein. For in vivo extrapolations, the hepatic extraction ratio (E) was calculated. Here it is reported the % MAB value which is equal to 1-E. The MAB (maximal achievable bioavailability) values express the maximal bioavailability that one can achieve with the given clearance values.

[2] = THESA assay, thermodynamic solubility; type: physicochemical; details: 22.5 °C, aqueous buffer, thermodynamic from solid, 50 mM phosphate buffer
Experimental: In addition, the compounds of the present invention have been tested in a THESA assay for determination of the thermodynamic solubility.
Approximately 2 mg of each compound was added in excess to a 50 mM phosphate buffer, at room temperature (22.5±1° C.). Each sample was placed in a microanalysis tube, which was sonicated for 1 h and agitated for 2 h. All suspensions were left overnight. At the next day all pHs were measured with a pH-meter and the samples filtered with a micronic filterplate (MSGVN2250) to separate the solid material from the solution. Then, all solutions were analyzed by HPLC. The calibration line was established by different concentrations of the compound in DMSO. From this regression equation the solubility of the compound was determined.

[3] = Microsome incubation, metabolic stability (mouse); type: in vitro ADME; details: for microsomal CLint at 10 μM: pH 7.4, liver microsomes, test compound 10 μM, 37° C., read-out: Intrinsic clearance (mouse)
[4] = maximal achievable bioavailability = 1-E, extrapolated from intrinsic clearance
[5] = comparison table, room temperature

## CC(O)(C(=O)NCC(F)(F)C(F)(F)F)C(=O)N[C@H]1CN(C(=O)OCC(F)(F)F)c2ccccc2NC1=O (single isomer, unassigned) [Example 10, (S)-3-[(R or S)-2-Hydroxy-2-(2,2,3,3,3-pentafluoro-propylcarbamoyl)-propionylamino]-4-oxo-2,3,4,5-tetrahydro-benzo[b][1,4]diazepine-1-carboxylic acid 2,2,2-trifluoro-ethyl ester and (S)-3-[(S or R)-2-Hydroxy-2-(2,2,3,3,3-pentafluoro-propylcarbamoyl)-propionylamino]-4-oxo-2,3,4,5-tetrahydro-benzo[b][1,4]diazepine-1-carboxylic acid 2,2,2-trifluoro-ethyl ester]
[1]; [4]
  MAB (human): 100.0%
[2]; room temperature (22.5±1° C.)
  solubility thermodynamic: 74 µg/mL (≈ 134 µM)
[3]; [4]
  MAB (mouse): 85.5%
[3]
  microsomal CLint at 10 μM: 5.4 µL/min/mg

## CC(O)(C(=O)NCC(F)(F)C(F)(F)F)C(=O)N[C@H]1CN(C(=O)OCC(F)(F)F)c2ccccc2N(CC(F)(F)F)C1=O (single isomer, unassigned) [Example 11]
[1]; comparison table
  MAB (human): 100.0%
[1]; [4]
  MAB (human): 100.0%
[2]; [5]
  solubility thermodynamic: 37 µg/mL (≈ 58.5 µM)
[3]; comparison table
  MAB (mouse): 74.9%
[3]; [4]
  MAB (mouse): 74.9%
[3]
  microsomal CLint at 10 μM: 10.6 µL/min/mg

## CC(O)(C(=O)NCC(F)(F)C(F)(F)F)C(=O)N[C@H]1CN(C(=O)OCC(F)(F)F)c2ccccc2N(CCO)C1=O (single isomer, unassigned) [Example 12, (S)-5-(2-Hydroxy-ethyl)-3-[(S or R)-2-hydroxy-2-(2,2,3,3,3-pentafluoro-propylcarbamoyl) -propionylamino]-4-oxo-2,3,4,5-tetrahydro-benzo[b][1,4]diazepine-1-carboxylic acid 2,2,2-trifluoro-ethyl ester]
[1]; [4]
  MAB (human): 84.3%
[1]
  microsomal CLint at 10 μM: 2.9 µL/min/mg
[2]; room temperature (22.5±1° C.)
  solubility thermodynamic: 3230 µg/mL (≈ 5430 µM)
[3]; [4]
  MAB (mouse): 97.2%
[3]
  microsomal CLint at 10 μM: 0.9 µL/min/mg

## CC(O)(C(=O)NCC(F)(F)C(F)(F)F)C(=O)N[C@H]1CN(C(=O)OCCO)c2ccccc2N(CCO)C1=O (single isomer, unassigned) [Example 14, (S)-5-(2-Hydroxy-ethyl)-3-[(S or R)-2-hydroxy-2-(2,2,3,3,3-pentafluoro-propylcarbamoyl)-propionylamino]-4-oxo-2,3,4,5-tetrahydro-benzo[b][1,4]diazepine-1-carboxylic acid 2-hydroxy-ethyl ester]
[1]; [4]
  MAB (human): 53.3%
[1]
  microsomal CLint at 10 μM: 13.6 µL/min/mg
[2]; room temperature (22.5±1° C.)
  solubility thermodynamic: 5180 µg/mL (≈ 9320 µM)
[3]; [4]
  MAB (mouse): 72.1%
[3]
  microsomal CLint at 10 μM: 12.3 µL/min/mg

## CC(C)(C(=O)NCC(F)(F)C(F)(F)F)C(=O)N[C@H]1CN(C(=O)OCC(F)(F)F)c2ccccc2N(CC(F)(F)F)C1=O [reference compound]
[1]; comparison table
  MAB (human): 19.6%
[2]; [5]
  solubility thermodynamic: 16 µg/mL (≈ 25.4 µM)
[3]; comparison table
  MAB (mouse): 28.4%

## CC(C)(C(=O)NCC(F)(F)C(F)(F)F)C(=O)N[C@H]1CN(CC(F)(F)F)c2ccccc2NC1=O [reference compound]
[1]; comparison table
  MAB (human): 43.1%
[2]; [5]
  solubility thermodynamic: < 1 µg/mL
[3]; comparison table
  MAB (mouse): 21.8%
